Results: article PMC12512194, “The Allosteric Regulator Inositol Phosphate Dramatically Affects the Efficacy and Selectivity of Inhibitors for Different HDAC Complexes” (Journal of the American Chemical Society, 2025)

Tests used:
HDAC1 = target: T1, HDAC1 (Homo sapiens, UniProt Q13547); experiment: HDAC1 protein level / degradation by immunoblot in HCT116 cells; format: cell-based; settings: even at 10 μM
T1 construct: endogenous in cells; host or cells: HCT116
Protocol: (§1) complex and inhibitor were then incubated at 20 °C, 100 RPM for 2 hours . After incubation, 10 μL of the Boc -(Ac)Lys -AMC substrate, dissolved in HDAC assay buffer, was added to each well. The plate was incubate d at 30 °C, 100 RPM for 1 hour, followed by addition of 50 μL of a developer buffer (50 mM Tris pH 7.5, 100 mM NaCl, 10 mg/mL trypsin) to quench the reaction. The reaction was allowed to develop for 10 minutes at 30 °C, 100 RPM. Fluorescence intensity was determined with the Victor […]
IC50 values were calculated using GraphPad
Prism 7 software by non-linear regression, log (inhibitor) vs. response – variable slope (four […]
(§2) 6. Culture of HCT116 cells
HCT116 cells were maintained on 100 mm or 60 mm culture dishes in Dulbecco's Modified Eagle Medium (Gibco) supplemented with 10% fetal bovine serum (Sigma) and 1X glutamine/penicillin/streptomycin (Gibco) . Once the cells reached ~90% confluency, they were washed with warm PBS (Sigma), trypsinised using TrypLETM Express solution (Gibco) and put into an incubator at 37°C for 5 minutes. Once dissociated, cell media was used to dilute the cells into required

HDAC3 = target: T2, HDAC3 (Homo sapiens, UniProt O15379); experiment: HDAC3 protein level / degradation by immunoblot in HCT116 cells; format: cell-based; settings: even at 10 μM
T2 construct: endogenous in cells; host or cells: HCT116
Protocol: as §1, with “Victor X5 plate reader (Perkin Elmer, λex = 355 nm, λem = 460 nm). IC50 values were calculated using GraphPad Prism 7 software by non-linear regression, log (inhibitor) vs. response – variable slope (four” for “Victor”
as §2
HCT116 cells were maintained on 100 mm or 60 mm culture dishes in Dulbecco's Modified Eagle Medium (Gibco) supplemented with 10% fetal bovine serum (Sigma) and 1X glutamine/penicillin/streptomycin (Gibco) . Once the cells reached ~90% confluency, they were washed with warm PBS (Sigma), trypsinised using TrypLETM Express solution (Gibco) and put into an incubator at 37°C for 5 minutes. […]
mins, 4 °C) and the supernatant was collected. Protein concentrations were quantified via Bradford Assay using Protein Assay Dye Reagent Concentrate (BIO -RAD). […]

T2 sequence (O15379 whole entry): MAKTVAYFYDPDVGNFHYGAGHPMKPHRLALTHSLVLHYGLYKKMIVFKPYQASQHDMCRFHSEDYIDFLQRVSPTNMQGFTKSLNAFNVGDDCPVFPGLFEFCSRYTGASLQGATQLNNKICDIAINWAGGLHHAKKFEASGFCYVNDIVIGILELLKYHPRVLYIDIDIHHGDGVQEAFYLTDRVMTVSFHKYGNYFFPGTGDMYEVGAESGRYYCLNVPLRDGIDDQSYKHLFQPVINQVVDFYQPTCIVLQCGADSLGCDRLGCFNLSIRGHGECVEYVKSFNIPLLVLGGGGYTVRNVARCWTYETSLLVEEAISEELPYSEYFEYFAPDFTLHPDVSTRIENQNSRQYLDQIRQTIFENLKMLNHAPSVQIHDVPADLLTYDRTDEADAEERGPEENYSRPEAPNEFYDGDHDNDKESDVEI
T2 sequence (Q9Y618 whole entry partner): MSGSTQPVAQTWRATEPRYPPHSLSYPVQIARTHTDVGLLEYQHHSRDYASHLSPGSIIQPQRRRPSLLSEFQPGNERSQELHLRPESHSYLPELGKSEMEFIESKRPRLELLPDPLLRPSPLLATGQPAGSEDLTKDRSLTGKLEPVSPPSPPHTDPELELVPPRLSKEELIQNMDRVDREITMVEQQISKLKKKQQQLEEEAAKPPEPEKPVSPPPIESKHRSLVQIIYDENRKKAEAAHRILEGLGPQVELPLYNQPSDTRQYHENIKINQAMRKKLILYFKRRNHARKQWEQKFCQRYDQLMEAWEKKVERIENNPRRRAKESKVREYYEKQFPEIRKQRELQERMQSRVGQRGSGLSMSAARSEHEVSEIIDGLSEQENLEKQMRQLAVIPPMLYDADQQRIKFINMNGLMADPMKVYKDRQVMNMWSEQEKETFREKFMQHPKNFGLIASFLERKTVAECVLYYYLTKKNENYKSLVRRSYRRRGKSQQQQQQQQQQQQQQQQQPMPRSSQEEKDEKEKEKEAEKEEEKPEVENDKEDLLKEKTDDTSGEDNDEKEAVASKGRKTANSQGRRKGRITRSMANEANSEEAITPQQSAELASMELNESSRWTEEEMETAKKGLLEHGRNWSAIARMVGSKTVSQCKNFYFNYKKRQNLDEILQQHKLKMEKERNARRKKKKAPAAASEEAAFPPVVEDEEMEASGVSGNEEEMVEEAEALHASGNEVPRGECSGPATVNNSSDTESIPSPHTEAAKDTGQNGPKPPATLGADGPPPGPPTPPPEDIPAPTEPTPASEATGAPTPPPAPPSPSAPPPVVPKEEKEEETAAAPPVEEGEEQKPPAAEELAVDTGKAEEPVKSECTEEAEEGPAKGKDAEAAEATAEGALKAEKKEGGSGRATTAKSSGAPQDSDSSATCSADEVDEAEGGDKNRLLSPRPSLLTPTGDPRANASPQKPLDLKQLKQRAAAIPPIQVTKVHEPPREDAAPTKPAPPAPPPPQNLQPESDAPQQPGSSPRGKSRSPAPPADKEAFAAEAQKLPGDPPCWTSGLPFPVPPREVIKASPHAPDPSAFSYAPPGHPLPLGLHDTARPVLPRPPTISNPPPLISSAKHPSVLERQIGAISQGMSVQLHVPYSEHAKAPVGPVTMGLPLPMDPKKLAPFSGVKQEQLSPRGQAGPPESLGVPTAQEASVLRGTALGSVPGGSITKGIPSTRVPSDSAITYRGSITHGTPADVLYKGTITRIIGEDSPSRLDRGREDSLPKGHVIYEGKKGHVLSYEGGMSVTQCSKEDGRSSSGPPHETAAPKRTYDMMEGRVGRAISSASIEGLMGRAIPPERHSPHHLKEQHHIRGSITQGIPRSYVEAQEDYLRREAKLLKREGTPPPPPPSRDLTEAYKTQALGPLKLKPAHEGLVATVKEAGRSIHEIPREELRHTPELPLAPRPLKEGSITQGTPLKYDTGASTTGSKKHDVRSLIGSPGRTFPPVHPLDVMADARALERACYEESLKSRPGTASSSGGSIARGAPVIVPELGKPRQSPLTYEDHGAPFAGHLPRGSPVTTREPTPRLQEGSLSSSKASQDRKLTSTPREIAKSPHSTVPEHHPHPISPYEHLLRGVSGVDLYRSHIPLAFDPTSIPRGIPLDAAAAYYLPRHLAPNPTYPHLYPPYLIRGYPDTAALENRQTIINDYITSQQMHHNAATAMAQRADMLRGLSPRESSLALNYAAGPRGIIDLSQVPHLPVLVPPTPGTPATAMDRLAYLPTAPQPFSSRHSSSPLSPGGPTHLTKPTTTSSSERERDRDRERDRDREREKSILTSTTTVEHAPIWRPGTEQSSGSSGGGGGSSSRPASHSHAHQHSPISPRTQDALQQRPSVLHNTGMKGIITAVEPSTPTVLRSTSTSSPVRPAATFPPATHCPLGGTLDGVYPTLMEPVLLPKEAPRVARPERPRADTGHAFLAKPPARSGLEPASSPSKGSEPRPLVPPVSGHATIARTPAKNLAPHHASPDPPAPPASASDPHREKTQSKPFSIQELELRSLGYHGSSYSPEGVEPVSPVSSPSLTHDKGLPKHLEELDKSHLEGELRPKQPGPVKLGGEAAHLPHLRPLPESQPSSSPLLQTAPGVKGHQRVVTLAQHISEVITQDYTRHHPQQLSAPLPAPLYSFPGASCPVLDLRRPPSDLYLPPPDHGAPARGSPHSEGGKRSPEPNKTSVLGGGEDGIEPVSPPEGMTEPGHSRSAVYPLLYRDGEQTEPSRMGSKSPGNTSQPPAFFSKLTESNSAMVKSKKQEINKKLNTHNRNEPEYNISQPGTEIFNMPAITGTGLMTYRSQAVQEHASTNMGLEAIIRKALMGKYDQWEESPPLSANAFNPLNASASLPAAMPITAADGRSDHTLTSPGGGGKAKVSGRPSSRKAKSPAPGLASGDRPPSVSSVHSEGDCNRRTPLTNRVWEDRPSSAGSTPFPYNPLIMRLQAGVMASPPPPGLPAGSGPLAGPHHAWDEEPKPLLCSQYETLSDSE
T1 sequence (Q13547 whole entry): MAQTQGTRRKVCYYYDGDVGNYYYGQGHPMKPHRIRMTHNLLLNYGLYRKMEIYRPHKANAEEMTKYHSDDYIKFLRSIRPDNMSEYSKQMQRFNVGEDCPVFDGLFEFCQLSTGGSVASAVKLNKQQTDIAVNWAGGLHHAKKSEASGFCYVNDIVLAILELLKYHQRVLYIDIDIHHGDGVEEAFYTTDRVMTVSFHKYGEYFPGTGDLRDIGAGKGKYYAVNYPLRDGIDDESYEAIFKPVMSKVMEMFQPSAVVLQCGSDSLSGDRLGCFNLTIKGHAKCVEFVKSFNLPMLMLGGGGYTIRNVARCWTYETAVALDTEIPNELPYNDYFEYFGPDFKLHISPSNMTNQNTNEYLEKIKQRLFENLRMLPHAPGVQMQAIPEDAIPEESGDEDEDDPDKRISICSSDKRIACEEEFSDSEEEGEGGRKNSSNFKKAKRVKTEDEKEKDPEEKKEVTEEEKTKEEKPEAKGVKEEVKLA

## Cc1ncsc1-c1ccc(CNC(=O)[C@@H]2C[C@@H](O)CN2C(=O)[C@@H](NC(=O)CCCCCCCCCC(=O)N2CCN(c3cnc(C(=O)Nc4cc(-c5ccncc5)ccc4N)cn3)CC2)C(C)(C)C)cc1 [JPS062]
HDAC1
  degradation of HDAC1: no degradation
HDAC3
  degradation of HDAC3: no degradation
